Data from ChEMBL document CHEMBL1201862, “PubChem BioAssay data set” (2004).
Active and inactive are the calls of the source.

How the values were obtained:
[1] = target: Ion channel NompC (Danio rerio, UniProt Q7T1G6); assay: Dose response cell-based high-throughput screening assay for agonists of the transient receptor potential channel N1 (TRPN1). [Related pubchem assays (depositor defined):AID1424, AID1448]; format: functional
[2] = target: T1, Mucolipin-3 (Homo sapiens, UniProt Q8TDD5); assay: Fluorescence counterscreen assay for […] agonists: dose response cell-based high-throughput screening assay to identify agonists of the transient receptor potential channel ML3 (TRPML3). [Related pubchem assays: 1424, 1448 ]; format: functional
T1 sequence (Q8TDD5 whole entry): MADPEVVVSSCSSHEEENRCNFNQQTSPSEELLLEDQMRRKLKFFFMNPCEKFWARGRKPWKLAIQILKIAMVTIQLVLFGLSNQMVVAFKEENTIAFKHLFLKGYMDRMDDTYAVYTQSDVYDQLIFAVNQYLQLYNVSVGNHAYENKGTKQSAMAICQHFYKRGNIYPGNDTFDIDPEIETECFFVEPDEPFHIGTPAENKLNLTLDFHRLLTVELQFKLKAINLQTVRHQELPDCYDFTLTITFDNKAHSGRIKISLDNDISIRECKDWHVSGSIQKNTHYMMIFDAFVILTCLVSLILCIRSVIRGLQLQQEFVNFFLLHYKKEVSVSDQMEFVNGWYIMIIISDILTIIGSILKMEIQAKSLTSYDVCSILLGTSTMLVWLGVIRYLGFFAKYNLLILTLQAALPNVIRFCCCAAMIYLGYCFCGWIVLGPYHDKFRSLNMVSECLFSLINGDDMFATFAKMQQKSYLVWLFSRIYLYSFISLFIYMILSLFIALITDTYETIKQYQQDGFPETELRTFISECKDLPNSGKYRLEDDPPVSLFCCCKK

[3] = target: Trypsin (Sus scrofa, UniProt P00761); assay: trypsin protease activity blockade – biochemical, quenched peptide fluorescence, cherry-pick, selectivity assay for Rce1 protease inhibitor project, dose response (AID 488789)
[4] = target: CAAX prenyl protease 1 (Saccharomyces cerevisiae S288c, UniProt P47154); assay: yeast CAAX protease Ste24 inhibition – biochemical, S. cerevisiae, plate reader, cherry-pick, dose response (AID 488815)
[5] = target: T2, CAAX prenyl protease 2 (Homo sapiens, UniProt Q9Y256); assay: inhibition of Ras-converting CAAX protease Rce1 – biochemical, yeast membranes, quenched-peptide fluorescence, cherry-pick, dose response (AID 588849)
T2 sequence (Q9Y256 whole entry): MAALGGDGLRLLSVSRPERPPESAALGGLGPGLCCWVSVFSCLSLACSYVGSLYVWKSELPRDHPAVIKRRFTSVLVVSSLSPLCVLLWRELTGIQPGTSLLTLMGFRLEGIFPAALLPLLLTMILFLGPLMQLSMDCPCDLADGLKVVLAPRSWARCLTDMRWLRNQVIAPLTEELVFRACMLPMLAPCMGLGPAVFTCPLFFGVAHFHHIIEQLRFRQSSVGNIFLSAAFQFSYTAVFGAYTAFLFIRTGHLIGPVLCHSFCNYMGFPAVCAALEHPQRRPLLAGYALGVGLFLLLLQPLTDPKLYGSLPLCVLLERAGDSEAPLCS

[6] = target: Kallikrein-7 (Homo sapiens, UniProt P49862); assay: Fluorescence Intensity-based biochemical primary high throughput dose response assay to identify activators of kallikrein-7 (K7) zymogen.
[7] = target: T3, Cannabinoid receptor 2 (Homo sapiens, UniProt P34972); assay: SAR analysis of antagonists of the Cannabinoid Receptor 2 using an Image-Based Assay - Set 2. [Related pubchem assays (depositor defined):AID1961, AID1965]; format: functional
[8] = target: G-protein coupled receptor 55 (Homo sapiens, UniProt Q9Y2T6); assay: SAR analysis of selective Agonists of GPR55 using an Image-Based Assay - Set 2. [Related pubchem assays (depositor defined):AID1961, AID1965]; format: functional
[9] = target: T3, Cannabinoid receptor 2; assay: SAR analysis of agonists of the Cannabinoid Receptor 2 using an Image-Based Assay - Set 2. [Related pubchem assays (depositor defined):AID1961, AID1965]; format: functional
[10] = target: T4, G-protein coupled receptor 35 (Homo sapiens, UniProt Q9HC97); assay: SAR analysis of Agonists of the GPR35 Receptor using an Image-Based Assay - Set 3. [Related pubchem assays (depositor defined):AID1961, AID1965]; format: functional
[11] = target: T5, Cannabinoid receptor 1 (Homo sapiens, UniProt P21554); assay: SAR analysis of antagonists of the Cannabinoid Receptor 1 using an Image-Based Assay - Set 3. [Related pubchem assays (depositor defined):AID1961, AID1965]; format: functional
[12] = target: T5, Cannabinoid receptor 1; assay: SAR analysis of agonists of the Cannabinoid Receptor 1 using an Image-Based Assay - Set 3. [Related pubchem assays (depositor defined):AID1961, AID1965]; format: functional
[13] = target: T4, G-protein coupled receptor 35; assay: SAR analysis of Antagonists of the GPR35 Receptor using an Image-Based Assay - Set 4. [Related pubchem assays (depositor defined):[…]]; format: functional
[14] = target: Large T antigen (Simian virus 40, UniProt P03070); format: functional, Betapolyomavirus macacae;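 also: Confirmatory-stage PubChem screen for compounds that inhibit SV40 T antigen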
[15] = target: T6, Caspase-3 (Homo sapiens, UniProt P42574); format: functional;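 also: Dose-response selectivity test against caspase-3 for candidate inhibitors of sentrin-specific proteases (SENPs)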
T6 sequence (P42574 whole entry): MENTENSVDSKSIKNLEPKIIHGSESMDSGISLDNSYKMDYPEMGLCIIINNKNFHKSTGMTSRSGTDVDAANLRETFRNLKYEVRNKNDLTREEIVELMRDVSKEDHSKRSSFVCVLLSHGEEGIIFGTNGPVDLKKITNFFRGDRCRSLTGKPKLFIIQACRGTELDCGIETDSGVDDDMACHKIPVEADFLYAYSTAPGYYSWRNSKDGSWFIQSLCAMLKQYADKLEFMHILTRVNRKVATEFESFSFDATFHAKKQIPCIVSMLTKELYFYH

[16] = target: T7, Sentrin-specific protease 7 (Homo sapiens, UniProt Q9BQF6); format: functional;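 also: Luminescence-based dose-response confirmation of ultra-high-throughput screening hits, measuring inhibition of SENP7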
T7 sequence (Q9BQF6 whole entry): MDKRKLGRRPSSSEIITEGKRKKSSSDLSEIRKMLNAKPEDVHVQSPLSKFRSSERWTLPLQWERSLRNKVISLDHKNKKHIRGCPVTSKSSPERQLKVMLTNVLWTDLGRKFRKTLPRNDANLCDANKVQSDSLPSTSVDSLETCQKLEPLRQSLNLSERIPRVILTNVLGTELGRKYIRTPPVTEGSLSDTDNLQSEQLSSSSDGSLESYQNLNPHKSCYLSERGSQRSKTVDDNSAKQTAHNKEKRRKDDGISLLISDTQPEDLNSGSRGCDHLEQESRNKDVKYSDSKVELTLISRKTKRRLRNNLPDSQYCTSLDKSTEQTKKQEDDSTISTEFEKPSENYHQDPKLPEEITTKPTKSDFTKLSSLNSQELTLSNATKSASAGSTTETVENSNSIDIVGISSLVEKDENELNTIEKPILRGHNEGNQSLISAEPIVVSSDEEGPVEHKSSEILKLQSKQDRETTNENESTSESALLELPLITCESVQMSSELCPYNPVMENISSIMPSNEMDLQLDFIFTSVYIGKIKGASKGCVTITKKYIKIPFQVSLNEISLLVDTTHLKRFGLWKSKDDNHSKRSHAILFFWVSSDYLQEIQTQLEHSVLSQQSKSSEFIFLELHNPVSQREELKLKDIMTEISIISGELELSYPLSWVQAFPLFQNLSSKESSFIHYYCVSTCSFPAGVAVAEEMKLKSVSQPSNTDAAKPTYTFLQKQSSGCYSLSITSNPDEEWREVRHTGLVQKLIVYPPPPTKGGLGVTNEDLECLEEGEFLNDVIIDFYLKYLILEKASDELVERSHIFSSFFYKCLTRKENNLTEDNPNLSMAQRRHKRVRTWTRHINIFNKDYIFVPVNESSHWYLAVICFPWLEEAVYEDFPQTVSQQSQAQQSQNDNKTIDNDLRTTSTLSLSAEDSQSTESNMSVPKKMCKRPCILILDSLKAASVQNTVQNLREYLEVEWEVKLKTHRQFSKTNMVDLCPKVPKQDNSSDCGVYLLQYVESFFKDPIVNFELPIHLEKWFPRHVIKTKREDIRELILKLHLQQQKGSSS

[17] = target: T8, Sentrin-specific protease 6 (Homo sapiens, UniProt Q9GZR1); format: functional;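 also: Luminescence-based dose-response confirmatory assay of SENP6 inhibition, following up an ultra-high-throughput screen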
T8 sequence (Q9GZR1 whole entry): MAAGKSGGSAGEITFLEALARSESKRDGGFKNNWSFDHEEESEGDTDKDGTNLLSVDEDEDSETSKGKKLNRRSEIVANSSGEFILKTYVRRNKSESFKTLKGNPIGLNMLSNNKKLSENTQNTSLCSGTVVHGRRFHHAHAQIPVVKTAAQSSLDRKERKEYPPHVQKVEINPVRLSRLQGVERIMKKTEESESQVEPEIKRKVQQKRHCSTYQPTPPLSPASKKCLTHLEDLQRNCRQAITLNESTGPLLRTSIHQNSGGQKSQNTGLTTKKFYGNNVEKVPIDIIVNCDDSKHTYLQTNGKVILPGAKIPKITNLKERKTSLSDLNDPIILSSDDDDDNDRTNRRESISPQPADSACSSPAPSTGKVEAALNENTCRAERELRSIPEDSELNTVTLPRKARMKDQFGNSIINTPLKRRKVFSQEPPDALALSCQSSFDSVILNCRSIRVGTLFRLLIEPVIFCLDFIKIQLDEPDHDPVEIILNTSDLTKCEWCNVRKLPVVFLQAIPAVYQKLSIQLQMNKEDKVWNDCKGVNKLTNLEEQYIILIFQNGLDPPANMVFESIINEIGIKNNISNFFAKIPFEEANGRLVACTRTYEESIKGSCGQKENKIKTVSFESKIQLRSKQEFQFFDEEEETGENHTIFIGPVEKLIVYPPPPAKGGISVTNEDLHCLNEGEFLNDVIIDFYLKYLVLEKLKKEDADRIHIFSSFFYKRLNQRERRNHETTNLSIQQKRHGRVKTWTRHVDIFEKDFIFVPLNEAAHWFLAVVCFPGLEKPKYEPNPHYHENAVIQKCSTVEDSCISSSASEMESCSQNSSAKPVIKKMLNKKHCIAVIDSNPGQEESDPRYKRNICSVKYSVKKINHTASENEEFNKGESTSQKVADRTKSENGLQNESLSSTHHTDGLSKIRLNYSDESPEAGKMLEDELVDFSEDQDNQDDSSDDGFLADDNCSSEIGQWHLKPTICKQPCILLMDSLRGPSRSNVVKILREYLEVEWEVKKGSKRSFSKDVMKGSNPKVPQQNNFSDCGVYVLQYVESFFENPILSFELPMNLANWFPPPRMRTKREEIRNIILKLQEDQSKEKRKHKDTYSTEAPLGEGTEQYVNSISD

[18] = target: T9, Sentrin-specific protease 8 (Homo sapiens, UniProt Q96LD8); format: functional;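 also: luminescence read-out of SENP8 inhibition, dose-response confirmation following an ultra-high-throughput screen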
T9 sequence (Q96LD8 whole entry): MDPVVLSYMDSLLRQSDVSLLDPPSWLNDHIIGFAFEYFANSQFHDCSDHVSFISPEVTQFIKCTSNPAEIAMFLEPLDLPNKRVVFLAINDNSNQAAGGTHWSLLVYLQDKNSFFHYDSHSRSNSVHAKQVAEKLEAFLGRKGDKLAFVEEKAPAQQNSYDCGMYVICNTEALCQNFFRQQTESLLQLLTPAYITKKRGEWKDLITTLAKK

[19] = target: Tumor necrosis factor (Homo sapiens, UniProt P01375); assay: analog potency on TNFa NF-kB signaling – cell-based, revised, SAR follow-up (AID 2337); format: functional
[20] = test system: HEK293; assay: cells; details: Homo sapiens;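 also: cells exposed to compound for 14 hours overnight before viability readout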

T3 sequence (P34972 whole entry): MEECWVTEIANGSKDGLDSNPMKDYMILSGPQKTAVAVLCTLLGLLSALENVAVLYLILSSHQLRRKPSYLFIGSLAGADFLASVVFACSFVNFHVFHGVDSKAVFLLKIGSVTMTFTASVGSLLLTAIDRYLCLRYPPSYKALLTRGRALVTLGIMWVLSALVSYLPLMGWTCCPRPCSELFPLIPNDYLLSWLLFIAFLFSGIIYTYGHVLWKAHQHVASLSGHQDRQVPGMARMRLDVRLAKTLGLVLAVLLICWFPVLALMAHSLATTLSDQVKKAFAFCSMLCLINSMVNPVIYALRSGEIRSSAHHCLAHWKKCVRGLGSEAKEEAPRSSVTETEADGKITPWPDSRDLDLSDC
T5 sequence (P21554 whole entry): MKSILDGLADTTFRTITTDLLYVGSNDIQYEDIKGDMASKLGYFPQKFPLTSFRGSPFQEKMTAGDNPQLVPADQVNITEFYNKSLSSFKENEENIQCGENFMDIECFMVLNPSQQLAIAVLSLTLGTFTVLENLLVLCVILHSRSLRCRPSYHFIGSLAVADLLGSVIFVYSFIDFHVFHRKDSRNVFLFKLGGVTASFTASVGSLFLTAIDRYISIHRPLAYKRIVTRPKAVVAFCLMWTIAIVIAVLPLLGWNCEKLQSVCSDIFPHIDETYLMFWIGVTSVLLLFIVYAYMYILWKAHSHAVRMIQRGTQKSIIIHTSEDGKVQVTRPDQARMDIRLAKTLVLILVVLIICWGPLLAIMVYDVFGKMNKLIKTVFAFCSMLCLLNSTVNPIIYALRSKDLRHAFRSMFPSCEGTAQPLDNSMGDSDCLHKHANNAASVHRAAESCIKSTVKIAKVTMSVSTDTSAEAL
T4 sequence (Q9HC97 whole entry): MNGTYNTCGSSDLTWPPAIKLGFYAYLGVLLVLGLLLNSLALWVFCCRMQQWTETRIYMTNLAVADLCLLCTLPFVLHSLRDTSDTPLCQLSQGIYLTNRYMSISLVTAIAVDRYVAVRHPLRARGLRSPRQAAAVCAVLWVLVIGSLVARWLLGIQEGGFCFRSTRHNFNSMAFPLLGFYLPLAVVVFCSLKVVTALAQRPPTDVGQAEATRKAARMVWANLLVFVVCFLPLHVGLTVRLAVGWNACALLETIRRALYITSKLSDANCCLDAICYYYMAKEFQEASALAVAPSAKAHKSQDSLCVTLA
Sequence of Trypsin (P00761 whole entry): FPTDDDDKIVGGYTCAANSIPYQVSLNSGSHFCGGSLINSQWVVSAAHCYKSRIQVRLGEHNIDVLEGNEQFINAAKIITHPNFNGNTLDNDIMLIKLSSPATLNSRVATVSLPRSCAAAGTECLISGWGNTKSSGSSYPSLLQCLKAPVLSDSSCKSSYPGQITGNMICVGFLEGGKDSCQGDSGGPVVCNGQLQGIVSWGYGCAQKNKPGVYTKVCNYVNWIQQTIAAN
Sequence of G-protein coupled receptor 55 (Q9Y2T6 whole entry): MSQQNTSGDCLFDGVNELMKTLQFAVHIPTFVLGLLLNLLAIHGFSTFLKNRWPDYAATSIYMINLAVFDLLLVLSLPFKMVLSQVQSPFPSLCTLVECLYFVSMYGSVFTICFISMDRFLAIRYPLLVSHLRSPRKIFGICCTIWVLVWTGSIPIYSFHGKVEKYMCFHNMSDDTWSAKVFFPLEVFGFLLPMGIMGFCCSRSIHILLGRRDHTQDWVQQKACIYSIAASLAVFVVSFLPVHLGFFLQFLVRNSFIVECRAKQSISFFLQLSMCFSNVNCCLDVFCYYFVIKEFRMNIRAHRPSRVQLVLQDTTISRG
Sequence of CAAX prenyl protease 1 (P47154 whole entry): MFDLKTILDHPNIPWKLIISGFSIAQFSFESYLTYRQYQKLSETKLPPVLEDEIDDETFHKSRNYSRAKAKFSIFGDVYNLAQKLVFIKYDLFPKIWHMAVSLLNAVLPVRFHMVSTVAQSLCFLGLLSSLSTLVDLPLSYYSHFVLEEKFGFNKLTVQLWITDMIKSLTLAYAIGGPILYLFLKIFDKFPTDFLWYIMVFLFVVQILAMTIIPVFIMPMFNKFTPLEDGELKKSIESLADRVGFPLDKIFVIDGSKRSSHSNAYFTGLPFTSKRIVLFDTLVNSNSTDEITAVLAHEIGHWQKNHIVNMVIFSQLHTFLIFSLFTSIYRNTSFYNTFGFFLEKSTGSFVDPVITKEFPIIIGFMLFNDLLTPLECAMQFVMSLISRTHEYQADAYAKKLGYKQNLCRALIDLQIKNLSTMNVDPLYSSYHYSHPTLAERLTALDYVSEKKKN
Sequence of Kallikrein-7 (P49862 whole entry): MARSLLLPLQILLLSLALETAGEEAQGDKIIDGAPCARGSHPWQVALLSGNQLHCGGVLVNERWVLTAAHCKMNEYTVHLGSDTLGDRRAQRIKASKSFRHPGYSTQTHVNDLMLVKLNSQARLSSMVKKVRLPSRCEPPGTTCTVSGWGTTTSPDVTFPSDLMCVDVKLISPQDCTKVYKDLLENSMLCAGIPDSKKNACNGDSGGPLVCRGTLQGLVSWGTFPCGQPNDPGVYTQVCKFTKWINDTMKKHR
Sequence of Large T antigen (P03070 whole entry): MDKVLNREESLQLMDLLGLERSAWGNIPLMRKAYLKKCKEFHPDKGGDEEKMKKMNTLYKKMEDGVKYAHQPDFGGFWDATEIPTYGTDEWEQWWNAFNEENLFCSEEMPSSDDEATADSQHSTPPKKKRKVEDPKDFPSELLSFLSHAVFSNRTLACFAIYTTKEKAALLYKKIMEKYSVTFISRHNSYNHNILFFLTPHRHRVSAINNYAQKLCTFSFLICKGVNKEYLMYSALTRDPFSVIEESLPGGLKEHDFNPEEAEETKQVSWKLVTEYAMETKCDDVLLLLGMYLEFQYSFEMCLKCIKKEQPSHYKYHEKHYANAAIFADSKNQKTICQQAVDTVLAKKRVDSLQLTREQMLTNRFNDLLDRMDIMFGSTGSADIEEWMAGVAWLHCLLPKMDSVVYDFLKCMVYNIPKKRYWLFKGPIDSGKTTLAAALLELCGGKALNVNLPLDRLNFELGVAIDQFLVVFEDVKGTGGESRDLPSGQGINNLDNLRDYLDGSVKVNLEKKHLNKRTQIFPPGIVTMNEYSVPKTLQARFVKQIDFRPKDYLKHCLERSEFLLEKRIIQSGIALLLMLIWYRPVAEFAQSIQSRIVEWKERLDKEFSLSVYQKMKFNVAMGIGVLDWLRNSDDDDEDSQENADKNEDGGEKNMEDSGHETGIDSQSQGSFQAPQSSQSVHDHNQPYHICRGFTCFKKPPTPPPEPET
Sequence of Tumor necrosis factor (P01375 whole entry): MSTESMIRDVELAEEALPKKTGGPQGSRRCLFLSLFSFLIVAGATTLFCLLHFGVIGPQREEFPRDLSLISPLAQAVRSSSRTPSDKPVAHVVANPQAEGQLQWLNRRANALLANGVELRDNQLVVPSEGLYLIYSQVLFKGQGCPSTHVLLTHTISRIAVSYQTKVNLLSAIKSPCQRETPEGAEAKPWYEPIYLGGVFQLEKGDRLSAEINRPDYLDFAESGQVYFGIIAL
Sequence of Ion channel NompC (Q7T1G6 whole entry): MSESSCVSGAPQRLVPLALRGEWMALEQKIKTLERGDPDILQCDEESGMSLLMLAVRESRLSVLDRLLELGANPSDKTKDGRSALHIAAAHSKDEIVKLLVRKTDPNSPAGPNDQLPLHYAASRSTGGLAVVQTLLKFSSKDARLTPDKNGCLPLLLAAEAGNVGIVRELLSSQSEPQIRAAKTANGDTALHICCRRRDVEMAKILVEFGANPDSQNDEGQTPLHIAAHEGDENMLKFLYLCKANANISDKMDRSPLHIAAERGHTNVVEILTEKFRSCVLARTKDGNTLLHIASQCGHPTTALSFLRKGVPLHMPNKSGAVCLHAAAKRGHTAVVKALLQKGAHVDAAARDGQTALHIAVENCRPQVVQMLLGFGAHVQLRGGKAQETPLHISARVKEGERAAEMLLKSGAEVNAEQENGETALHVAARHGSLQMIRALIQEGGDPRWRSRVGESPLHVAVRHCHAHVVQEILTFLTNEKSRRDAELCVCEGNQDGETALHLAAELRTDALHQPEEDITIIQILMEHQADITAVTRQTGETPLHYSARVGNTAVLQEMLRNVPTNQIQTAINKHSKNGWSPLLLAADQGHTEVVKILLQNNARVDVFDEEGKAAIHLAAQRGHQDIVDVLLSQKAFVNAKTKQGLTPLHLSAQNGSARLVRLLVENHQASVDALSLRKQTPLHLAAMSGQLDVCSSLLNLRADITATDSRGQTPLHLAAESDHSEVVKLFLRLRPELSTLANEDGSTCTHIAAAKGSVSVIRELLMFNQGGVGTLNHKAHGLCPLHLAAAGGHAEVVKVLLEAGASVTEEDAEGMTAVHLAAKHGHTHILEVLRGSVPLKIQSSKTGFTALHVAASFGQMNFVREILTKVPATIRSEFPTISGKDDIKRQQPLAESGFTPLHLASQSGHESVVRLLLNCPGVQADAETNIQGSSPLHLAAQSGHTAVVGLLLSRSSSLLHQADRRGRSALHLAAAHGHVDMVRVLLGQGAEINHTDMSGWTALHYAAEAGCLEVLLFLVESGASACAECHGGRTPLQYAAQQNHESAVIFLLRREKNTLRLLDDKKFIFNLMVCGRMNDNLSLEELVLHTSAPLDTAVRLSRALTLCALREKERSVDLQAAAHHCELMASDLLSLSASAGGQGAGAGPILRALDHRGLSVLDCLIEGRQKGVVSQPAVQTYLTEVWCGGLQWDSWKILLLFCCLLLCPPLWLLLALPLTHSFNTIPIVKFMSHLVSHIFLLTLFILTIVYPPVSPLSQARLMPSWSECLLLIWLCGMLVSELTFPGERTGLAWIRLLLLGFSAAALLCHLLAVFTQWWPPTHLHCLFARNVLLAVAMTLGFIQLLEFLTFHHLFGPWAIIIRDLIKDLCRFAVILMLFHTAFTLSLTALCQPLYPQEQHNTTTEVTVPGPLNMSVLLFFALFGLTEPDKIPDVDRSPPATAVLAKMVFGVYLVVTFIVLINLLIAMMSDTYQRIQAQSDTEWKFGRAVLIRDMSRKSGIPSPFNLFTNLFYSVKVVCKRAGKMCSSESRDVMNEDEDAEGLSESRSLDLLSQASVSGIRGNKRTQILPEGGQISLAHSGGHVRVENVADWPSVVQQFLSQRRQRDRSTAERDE

Compound	AC50 [3]	AC50 [4]	AC50 [5]	IC50 [7]	EC50 [8]	EC50 [9]	EC50 [10]	IC50 [11]	EC50 [12]	IC50 [13]	other results
Cc1ccc(NS(=O)(=O)c2ccc(C(=O)OCC(=O)Nc3cc(C)on3)cc2)cc1											EC50 [1]: > 29.9 µM (inactive); EC50 [2]: > 29.9 µM (not active)
CCOc1ccc(S(=O)(=O)N2CCOCC2)cc1NC(=O)c1ccc(N2CCCC2=O)cc1				> 32 µM (inactive)	> 32 µM (inactive)	> 32 µM (inactive)	> 32 µM (inactive)	4.98 µM (active)	> 32 µM (inactive)	> 32 µM (inactive)	
O=C(Nc1cc(S(=O)(=O)N2CCOCC2)ccc1OCC(F)(F)F)c1ccc(N2CCCC2=O)cc1				> 32 µM (inactive)	> 32 µM (inactive)	> 32 µM (inactive)	> 32 µM (inactive)	> 32 µM (inactive)	> 32 µM (inactive)	> 32 µM (inactive)	
CC(=O)N1CCc2cc(S(=O)(=O)N3CCN(c4ccc([N+](=O)[O-])cc4)CC3)ccc21											IC50 [19]: > 20 µM (inactive); IC50 [20]: > 20 µM (inactive)

More lines, main results first:

AC50 [3]	AC50 [4]	AC50 [5]	IC50 [7]	EC50 [8]	EC50 [9]	EC50 [10]	IC50 [11]	EC50 [12]	IC50 [13]	Compound	other results
28.5 µM (active)	1.72 µM (active)	6.01 µM (active)								CCC(C)NC(=O)c1cc2c(=O)n3cccc(C)c3nc2s1 (stereo not given)	EC50 [6]: > 69.6 µM (inactive)
10.8 µM (active)	4.39 µM (active)	6.52 µM (active)								Oc1ccc(-c2nc3ccccn3c2NCc2ccco2)cc1	IC50 [14]: 11.4 µM (active); IC50 [15]: 17.6 µM (active); IC50 [16]: 16 µM (active); IC50 [17]: 54.4 µM (active); IC50 [18]: 81.9 µM (active)
